Test results published in EP2165698B1, “Cosmetic composition designed to protect damaged skin” (Universkin, priority 2008, dated 2016).
Where a SMILES comes first, the peptide text is derived from it.

How the values were obtained:
[1] = test system: kératinocytes de lignée NCTC
[2] = test system: Fibroblastes de lignée MRC5
[3] = test system: fibroblastes de lignée humaine; experiment: Production of extracellular matrix (MEC) proteins by fibroblasts, immunofluorescence / confocal microscopy; details: tripeptide-1 à 10^-7M vs culture without peptide
Description: Exemple 1 Etude du tripeptide-1® sur la production de protéines de la MEC par les fibroblastes par immunofluorescence.
• ▪ Matériel : fibroblastes de lignée humaine. • ▪ Protocole : les fibroblastes sont mis en culture en présence ou en absence du tripeptide-1® à 10^-7M. • ▪ Etude microscopique par microscopie confocale.

Q: Which “acide EPA dans les cellules de kératinocytes” value [1] does the source give for CC/C=C\C/C=C\C/C=C\CCCCCCCC(=O)O [acide alpha-linolénique] here?
A: The value was “apparition de l'acide EPA”.

Q: And the “acide alpha-linolénique dans le surnageant” value [1]?
A: Its value is “aucune trace”.

Q: What about the “acide alpha-linolénique dans les cellules de kératinocytes” value [1] of the same compound?
A: Its value is “quantités importantes”.

Q: What about the “acides EPA et DHA dans le surnageant” value [1] of the same compound?
A: The value was “Apparition des acides EPA et DHA”.

Q: What about the “acide alpha-linolénique dans le surnageant” value [2] of the same compound?
A: Its value is “plus faible quantité que la quantité de départ”.

Q: And the “acides EPA et DHA dans le milieu surnageant” value [2]?
A: The value was “Apparition des acides EPA et DHA”.

Q: NCCCC[C@H](NC(=O)[C@H](Cc1c[nH]cn1)NC(=O)CN)C(=O)O [tripeptide-1, H-Gly-His-Lys-OH] (H-Gly-His-Lys-OH) was tested. Which “AUGMENTATION % - Collagène de type I” value [3] did it give?
A: Its value is “+ 305%”.

Q: And the “AUGMENTATION % - Collagène de type II” value [3]?
A: The value was “+ 105%”.

Q: What about the “AUGMENTATION % - Elastine” value [3] of the same compound?
A: Its value is “+ 15%”.

Q: And the “AUGMENTATION % - Fibronectine” value [3]?
A: The value was “+ 155%”.

Q: And the “AUGMENTATION % - Laminine” value [3]?
A: The value was “+ 85%”.
